In the supplement of paper PMC5908809:

What was measured:
NKL (IL-2 2.5 ng/mL) [1] = assay: drug sensitivity score (DSS) (DSS units); higher = more sensitive; extreme values may be limits of the assay; details: 72 h
[2] = test system: normal primary NK cells, pool 2 (3 donors) (IL-2 2.5 ng/mL); assay: as above; details: 72 h
NK-92 (IL-2 2.5 ng/mL) [3] = assay: as above; details: 72 h
DERL-7 (IL-2 2.5 ng/mL) [4] = assay: as above; details: 72 h
[5] = test system: normal primary NK cells, pool 1 (3 donors), resting (IL-2 0 ng/mL); assay: as above; details: 72 h
[6] = test system: normal primary NK cells, pool 1 (3 donors) (IL-2 2.5 ng/mL); assay: as above; details: 72 h
YT (IL-2 2.5 ng/mL) [7] = assay: as above; details: 72 h
NK-YS (IL-2 2.5 ng/mL) [8] = assay: as above; details: 72 h
SNK-6 (IL-2 2.5 ng/mL) [9] = assay: as above; details: 72 h
IMC-1 (IL-2 20 ng/mL) [10] = assay: as above; details: 72 h
KAI3 (IL-2 2.5 ng/mL) [11] = assay: as above; details: 72 h
KHYG-1 (IL-2 2.5 ng/mL) [12] = assay: as above; details: 72 h
[13] = test system: normal primary NK cells, pool 3 (3 donors) (IL-2 2.5 ng/mL); assay: as above; details: 72 h
[14] = test system: normal NK cells expanded with K562-aAPC; assay: as above; details: 72 h; IL-2 2.5 ng/mL
Description: (§1)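 Drug sensitivity and resistance testing on K562-aAPC-expanded normal NK cells: 5 concentrations (10-fold steps over a 10,000-fold range), 72 h at 37 °C, viability by CellTiter-Glo normalised to DMSO and benzethonium chloride controls; DSS from the fitted curve.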

NKL (IL-2 2.5 ng/mL) [15] = assay: percent inhibition of viability; higher = more inhibition; details: 72 h
[16] = test system: normal primary NK cells, pool 2 (3 donors) (IL-2 2.5 ng/mL); assay: as above; details: 72 h
NK-92 (IL-2 2.5 ng/mL) [17] = assay: as above; details: 72 h
DERL-7 (IL-2 2.5 ng/mL) [18] = assay: as above; details: 72 h
[19] = test system: normal primary NK cells, pool 1 (3 donors), resting (IL-2 0 ng/mL); assay: as above; details: 72 h
[20] = test system: normal primary NK cells, pool 1 (3 donors) (IL-2 2.5 ng/mL); assay: as above; details: 72 h
YT (IL-2 2.5 ng/mL) [21] = assay: as above; details: 72 h
NK-YS (IL-2 2.5 ng/mL) [22] = assay: as above; details: 72 h
SNK-6 (IL-2 2.5 ng/mL) [23] = assay: as above; details: 72 h
IMC-1 (IL-2 20 ng/mL) [24] = assay: as above; details: 72 h
KAI3 (IL-2 2.5 ng/mL) [25] = assay: as above; details: 72 h
KHYG-1 (IL-2 2.5 ng/mL) [26] = assay: as above; details: 72 h
[27] = test system: normal primary NK cells, pool 3 (3 donors) (IL-2 2.5 ng/mL); assay: as above; details: 72 h
[28] = test system: normal NK cells expanded with K562-aAPC; assay: as above; details: 72 h, IL-2 2.5 ng/mL
Description: as §1

C=CCn1c(=O)c2cnc(Nc3ccc(N4CCN(C)CC4)cc3)nc2n1-c1cccc(C(C)(C)O)n1 [MK1775] (max concentration tested 10000 nM)
Details	drug sensitivity score
DERL-7 (IL-2 2.5 ng/mL) [4]	20.4
IMC-1 (IL-2 20 ng/mL) [10]	17.1
KAI3 (IL-2 2.5 ng/mL) [11]	21.8
KHYG-1 (IL-2 2.5 ng/mL) [12]	27.1
NK-92 (IL-2 2.5 ng/mL) [3]	24.3
NK-YS (IL-2 2.5 ng/mL) [8]	18.8
NKL (IL-2 2.5 ng/mL) [1]	25.5
SNK-6 (IL-2 2.5 ng/mL) [9]	21
YT (IL-2 2.5 ng/mL) [7]	20.4
[2]	2.29
[5]	0
[6]	3.64
[13]	1.01
[14]	13

percent inhibition of viability [%]
Details	1 nM	10 nM	100 nM	1000 nM	10000 nM
DERL-7 (IL-2 2.5 ng/mL) [18]	0.66	0.03	17.1	97.5	92.2
IMC-1 (IL-2 20 ng/mL) [24]	-5.81	-5.29	-4.21	96.3	99
KAI3 (IL-2 2.5 ng/mL) [25]	-0.83	7.57	45.7	91.1	90.4
KHYG-1 (IL-2 2.5 ng/mL) [26]	-2.16	1.16	78.7	102	98.7
NK-92 (IL-2 2.5 ng/mL) [17]	4.45	-1.85	53.5	98.9	97.4
NK-YS (IL-2 2.5 ng/mL) [22]	-5.73	-7.13	10.9	92.7	94.9
NKL (IL-2 2.5 ng/mL) [15]	-16	4.83	68.4	94.3	64.4
SNK-6 (IL-2 2.5 ng/mL) [23]	-5.66	-15.9	26.5	92.5	96.4
YT (IL-2 2.5 ng/mL) [21]	1.53	1.29	16.2	98.3	98.1
[16]	-15.1	-7.74	-2.34	4.19	34.3
[19]	-1.92	-3.22	7.91	4.91	-27.9
[20]	-14.7	-12.2	-5.81	9.3	42.5
[27]	-17.6	-4.31	-8.03	5.21	17.9
[28]	-4.38	-1.43	28.4	50.9	65.7

Cn1c(CCCC(=O)O)nc2cc(N(CCCl)CCCl)ccc21 [Bendamustine] (max concentration tested 10000 nM)
Details	drug sensitivity score
DERL-7 (IL-2 2.5 ng/mL) [4]	0
IMC-1 (IL-2 20 ng/mL) [10]	1.24
KAI3 (IL-2 2.5 ng/mL) [11]	1.09
KHYG-1 (IL-2 2.5 ng/mL) [12]	0.29
NK-92 (IL-2 2.5 ng/mL) [3]	0.59
NK-YS (IL-2 2.5 ng/mL) [8]	4.15
NKL (IL-2 2.5 ng/mL) [1]	8.66
SNK-6 (IL-2 2.5 ng/mL) [9]	5.85
YT (IL-2 2.5 ng/mL) [7]	0
[2]	3.11
[5]	4.14
[6]	2.59
[13]	3.81
[14]	4.02

percent inhibition of viability [%]
Details	1 nM	10 nM	100 nM	1000 nM	10000 nM
DERL-7 (IL-2 2.5 ng/mL) [18]	2.35	-0.75	-0.87	-0.14	8.22
IMC-1 (IL-2 20 ng/mL) [24]	-5.16	-3.14	0.53	1.92	25.3
KAI3 (IL-2 2.5 ng/mL) [25]	-0.41	1.91	1.35	-4.7	30.8
KHYG-1 (IL-2 2.5 ng/mL) [26]	-5.91	1.42	10.1	2.21	17.1
NK-92 (IL-2 2.5 ng/mL) [17]	-10.3	-2.08	7.9	-10.7	24.9
NK-YS (IL-2 2.5 ng/mL) [22]	-10.9	-2.18	8.61	4.45	63.6
NKL (IL-2 2.5 ng/mL) [15]	-5.33	-10.8	5.76	27.8	88.6
SNK-6 (IL-2 2.5 ng/mL) [23]	-1.78	-2.24	14.2	17.1	67
YT (IL-2 2.5 ng/mL) [21]	-6.57	-3.19	7.12	-0.08	0
[16]	-6.1	-4.8	1.7	1.54	54.5
[19]	-1.75	6.06	-6.12	-12.6	88.2
[20]	-9.6	-0.97	-3.62	-12.8	60.6
[27]	-2.58	1.8	5.19	5.5	54.3
[28]	3.13	1.48	-1.08	12.2	42.8
